Assay results reported in PubChem BioAssay AID1919004 (Molecular Pharmacology Branch, DTP, NCI, 2023).

Test system: 883617-216-R-J1-PDC complex spheroids, growth, % test/control
Assay: Anticancer human tumor 883617-216-R-J1-PDC patient-derived bladder carcinoma cell line growth inhibition [AhR]
Conditions: for IC50: curve of first compound; for viability, T/C: stronger effect = lower value
Summary of the method: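 Complex tumor spheroids co-cultured with HUVEC and human MSC stroma; AhR antagonists tested in combination with standard-of-care and investigational agents. Top concentration at or near clinical Cmax (else 10 microM), half-log dilutions; growth expressed as percent test/control.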

[1] = second compound 0.1 µM, first compound 0.00949 µM
[2] = second compound 0.1 µM, first compound 0.03 µM
[3] = second compound 0.1 µM, first compound 0.0949 µM
[4] = second compound 0.1 µM, first compound 0.3 µM
[5] = second compound 0.316 µM, first compound 0.00949 µM
[6] = second compound 0.316 µM, first compound 0.03 µM
[7] = second compound 0.316 µM, first compound 0.0949 µM
[8] = second compound 0.316 µM, first compound 0.3 µM
[9] = second compound 1 µM, first compound 0.00949 µM
[10] = second compound 1 µM, first compound 0.03 µM
[11] = second compound 1 µM, first compound 0.0949 µM
[12] = second compound 1 µM, first compound 0.3 µM
[13] = second compound 3.16 µM, first compound 0.00949 µM
[14] = second compound 3.16 µM, first compound 0.03 µM
[15] = second compound 3.16 µM, first compound 0.0949 µM
[16] = second compound 3.16 µM, first compound 0.3 µM
[17] = second compound 10 µM, first compound 0.00949 µM
[18] = second compound 10 µM, first compound 0.03 µM
[19] = second compound 10 µM, first compound 0.0949 µM
[20] = second compound 10 µM, first compound 0.3 µM
[21] = second compound 0.1 µM, first compound 0.949 µM
[22] = second compound 0.1 µM, first compound 3 µM
[23] = second compound 0.316 µM, first compound 0.949 µM
[24] = second compound 0.316 µM, first compound 3 µM
[25] = second compound 1 µM, first compound 0.949 µM
[26] = second compound 1 µM, first compound 3 µM
[27] = second compound 3.16 µM, first compound 0.949 µM
[28] = second compound 3.16 µM, first compound 3 µM
[29] = second compound 10 µM, first compound 0.949 µM
[30] = second compound 10 µM, first compound 3 µM
[31] = second compound 0.1 µM, first compound 0.0316 µM
[32] = second compound 0.1 µM, first compound 0.1 µM
[33] = second compound 0.1 µM, first compound 0.316 µM
[34] = second compound 0.1 µM, first compound 1 µM
[35] = second compound 0.1 µM, first compound 3.16 µM
[36] = second compound 0.1 µM, first compound 10 µM
[37] = second compound 0.316 µM, first compound 0.0316 µM
[38] = second compound 0.316 µM, first compound 0.1 µM
[39] = second compound 0.316 µM, first compound 0.316 µM
[40] = second compound 0.316 µM, first compound 1 µM
[41] = second compound 0.316 µM, first compound 3.16 µM
[42] = second compound 0.316 µM, first compound 10 µM
[43] = second compound 1 µM, first compound 0.0316 µM
[44] = second compound 1 µM, first compound 0.1 µM
[45] = second compound 1 µM, first compound 0.316 µM
[46] = second compound 1 µM, first compound 1 µM
[47] = second compound 1 µM, first compound 3.16 µM
[48] = second compound 1 µM, first compound 10 µM
[49] = second compound 3.16 µM, first compound 0.0316 µM
[50] = second compound 3.16 µM, first compound 0.1 µM
[51] = second compound 3.16 µM, first compound 0.316 µM
[52] = second compound 3.16 µM, first compound 1 µM
[53] = second compound 3.16 µM, first compound 3.16 µM
[54] = second compound 3.16 µM, first compound 10 µM
[55] = second compound 10 µM, first compound 0.0316 µM
[56] = second compound 10 µM, first compound 0.1 µM
[57] = second compound 10 µM, first compound 0.316 µM
[58] = second compound 10 µM, first compound 1 µM
[59] = second compound 10 µM, first compound 3.16 µM
[60] = second compound 10 µM, first compound 10 µM
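Note: exposure lasted 7 days after dosing on day 3 of spheroid growth.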

## Nc1ncn(C2CC(O)C(CO)S2)c(=O)n1 (stereo not drawn) + Cc1cncc(-c2nc(NCCc3c[nH]c4ccccc34)c3ncn(C(C)C)c3n2)c1
Second compound 0.1 µM
  IC50: > 0.3 µM
Second compound 0.316 µM
  IC50: > 0.3 µM
Second compound 1 µM
  IC50: > 0.3 µM
Second compound 3.16 µM
  IC50: > 0.3 µM
Second compound 10 µM
  IC50: > 0.3 µM
Second compound 0.1 µM, first compound 0.000949 µM
  viability, T/C: 93.3%
Second compound 0.1 µM, first compound 0.003 µM
  viability, T/C: 88.9%
[1]
  viability, T/C: 94.6%
[2]
  viability, T/C: 89.9%
[3]
  viability, T/C: 87.3%
[4]
  viability, T/C: 81.9%
Second compound 0.316 µM, first compound 0.000949 µM
  viability, T/C: 95%
Second compound 0.316 µM, first compound 0.003 µM
  viability, T/C: 104%
[5]
  viability, T/C: 103%
[6]
  viability, T/C: 90.7%
[7]
  viability, T/C: 91.7%
[8]
  viability, T/C: 81.6%
Second compound 1 µM, first compound 0.000949 µM
  viability, T/C: 105%
Second compound 1 µM, first compound 0.003 µM
  viability, T/C: 119%
[9]
  viability, T/C: 106%
[10]
  viability, T/C: 107%
[11]
  viability, T/C: 92.4%
[12]
  viability, T/C: 94.8%
Second compound 3.16 µM, first compound 0.000949 µM
  viability, T/C: 82.8%
Second compound 3.16 µM, first compound 0.003 µM
  viability, T/C: 82.6%
[13]
  viability, T/C: 82.4%
[14]
  viability, T/C: 88.2%
[15]
  viability, T/C: 76.7%
[16]
  viability, T/C: 83.1%
Second compound 10 µM, first compound 0.000949 µM
  viability, T/C: 54.5%
Second compound 10 µM, first compound 0.003 µM
  viability, T/C: 62.4%
[17]
  viability, T/C: 59%
[18]
  viability, T/C: 57.3%
[19]
  viability, T/C: 46.4%
[20]
  viability, T/C: 61.5%

## CCN(c1cc(-c2ccc(CN3CCOCC3)cc2)cc(C(=O)NCc2c(C)cc(C)[nH]c2=O)c1C)C1CCOCC1 + Cc1ccccc1N=Nc1ccc(NC(=O)c2ccnn2C)c(C)c1
Second compound 0.1 µM
  IC50: > 3 µM
Second compound 0.316 µM
  IC50: > 3 µM
Second compound 1 µM
  IC50: > 3 µM
Second compound 3.16 µM
  IC50: > 3 µM
Second compound 10 µM
  IC50: > 3 µM
[1]
  viability, T/C: 88.3%
[2]
  viability, T/C: 100%
[3]
  viability, T/C: 88.5%
[4]
  viability, T/C: 91.7%
[21]
  viability, T/C: 80.3%
[22]
  viability, T/C: 84.3%
[5]
  viability, T/C: 83.3%
[6]
  viability, T/C: 91.5%
[7]
  viability, T/C: 86.4%
[8]
  viability, T/C: 85.3%
[23]
  viability, T/C: 88.3%
[24]
  viability, T/C: 86.1%
[9]
  viability, T/C: 80.7%
[10]
  viability, T/C: 82.2%
[11]
  viability, T/C: 84%
[12]
  viability, T/C: 78.3%
[25]
  viability, T/C: 82.8%
[26]
  viability, T/C: 96.4%
[13]
  viability, T/C: 75.8%
[14]
  viability, T/C: 84.5%
[15]
  viability, T/C: 83.4%
[16]
  viability, T/C: 85.5%
[27]
  viability, T/C: 88.4%
[28]
  viability, T/C: 79.2%
[17]
  viability, T/C: 80%
[18]
  viability, T/C: 86.1%
[19]
  viability, T/C: 75.6%
[20]
  viability, T/C: 75.2%
[29]
  viability, T/C: 77.6%
[30]
  viability, T/C: 81.4%

## O=C(C=Cn1cnc(-c2cc(C(F)(F)F)cc(C(F)(F)F)c2)n1)NNc1cnccn1 + CC(CO)NC(=O)c1cc(-c2ccc(Cl)cc2)nn(-c2cnn(C)c2)c1=O
Second compound 0.1 µM
  IC50: 0.155 µM
Second compound 0.316 µM
  IC50: 0.351 µM
Second compound 1 µM
  IC50: 0.187 µM
Second compound 3.16 µM
  IC50: 0.18 µM
Second compound 10 µM
  IC50: 0.165 µM
[1]
  viability, T/C: 93.7%
[2]
  viability, T/C: 78.1%
[3]
  viability, T/C: 56.8%
[4]
  viability, T/C: 40.4%
[21]
  viability, T/C: 34.5%
[22]
  viability, T/C: 29.7%
[5]
  viability, T/C: 109%
[6]
  viability, T/C: 79.4%
[7]
  viability, T/C: 71%
[8]
  viability, T/C: 50.1%
[23]
  viability, T/C: 37.8%
[24]
  viability, T/C: 37.2%
[9]
  viability, T/C: 60.4%
[10]
  viability, T/C: 76.3%
[11]
  viability, T/C: 65%
[12]
  viability, T/C: 37.2%
[25]
  viability, T/C: 46.8%
[26]
  viability, T/C: 34.5%
[13]
  viability, T/C: 65.1%
[14]
  viability, T/C: 61.9%
[15]
  viability, T/C: 71.2%
[16]
  viability, T/C: 32.4%
[27]
  viability, T/C: 50.3%
[28]
  viability, T/C: 29.1%
[17]
  viability, T/C: 72.3%
[18]
  viability, T/C: 46.9%
[19]
  viability, T/C: 75.3%
[20]
  viability, T/C: 34.1%
[29]
  viability, T/C: 37.5%
[30]
  viability, T/C: 24.9%

## Cc1cncc(-c2nc(NCCc3c[nH]c4ccccc34)c3ncn(C(C)C)c3n2)c1
Compound 0.1 µM
  viability, T/C: 88.2% [middle of 19 runs]
Compound 1 µM
  viability, T/C: 95.8% [middle of 20 runs]
Compound 10 µM
  viability, T/C: 51.4% [middle of 21 runs]

## CC1COCCN1c1cc(C2(S(C)(=N)=O)CC2)nc(-c2ccnc3[nH]ccc23)n1 (stereo not drawn) + Cc1cncc(-c2nc(NCCc3c[nH]c4ccccc34)c3ncn(C(C)C)c3n2)c1
Second compound 0.1 µM
  IC50: > 10 µM
Second compound 0.316 µM
  IC50: > 10 µM
Second compound 1 µM
  IC50: > 10 µM
Second compound 3.16 µM
  IC50: > 10 µM
Second compound 10 µM
  IC50: 1.19 µM
[31]
  viability, T/C: 88.1%
[32]
  viability, T/C: 90.5%
[33]
  viability, T/C: 84.3%
[34]
  viability, T/C: 84.8%
[35]
  viability, T/C: 78.3%
[36]
  viability, T/C: 58.2%
[37]
  viability, T/C: 92.4%
[38]
  viability, T/C: 95.6%
[39]
  viability, T/C: 92.3%
[40]
  viability, T/C: 82.1%
[41]
  viability, T/C: 69.3%
[42]
  viability, T/C: 54.3%
[43]
  viability, T/C: 95.8%
[44]
  viability, T/C: 100%
[45]
  viability, T/C: 100%
[46]
  viability, T/C: 94.9%
[47]
  viability, T/C: 81.7%
[48]
  viability, T/C: 62.9%
[49]
  viability, T/C: 103%
[50]
  viability, T/C: 113%
[51]
  viability, T/C: 100%
[52]
  viability, T/C: 94.2%
[53]
  viability, T/C: 85%
[54]
  viability, T/C: 54.8%
[55]
  viability, T/C: 57%
[56]
  viability, T/C: 50.1%
[57]
  viability, T/C: 59.6%
[58]
  viability, T/C: 50.6%
[59]
  viability, T/C: 42.7%
[60]
  viability, T/C: 29.8%

## O=C(c1cc(Cc2n[nH]c(=O)c3ccccc23)ccc1F)N1CCN(C(=O)C2CC2)CC1 + Cc1cncc(-c2nc(NCCc3c[nH]c4ccccc34)c3ncn(C(C)C)c3n2)c1
Second compound 0.1 µM
  IC50: > 10 µM
Second compound 0.316 µM
  IC50: > 10 µM
Second compound 1 µM
  IC50: > 10 µM
Second compound 3.16 µM
  IC50: > 10 µM
Second compound 10 µM
  IC50: > 10 µM
[31]
  viability, T/C: 81.1%
[32]
  viability, T/C: 89.9%
[33]
  viability, T/C: 76.4%
[34]
  viability, T/C: 79.5%
[35]
  viability, T/C: 70.8%
[36]
  viability, T/C: 83.7%
[37]
  viability, T/C: 93.5%
[38]
  viability, T/C: 86.9%
[39]
  viability, T/C: 79.1%
[40]
  viability, T/C: 78.9%
[41]
  viability, T/C: 77.9%
[42]
  viability, T/C: 71.7%
[43]
  viability, T/C: 90%
[44]
  viability, T/C: 90.9%
[45]
  viability, T/C: 91%
[46]
  viability, T/C: 78.9%
[47]
  viability, T/C: 87%
[48]
  viability, T/C: 80%
[49]
  viability, T/C: 99.9%
[50]
  viability, T/C: 94.8%
[51]
  viability, T/C: 98.4%
[52]
  viability, T/C: 89.6%
[53]
  viability, T/C: 101%
[54]
  viability, T/C: 71.9%
[55]
  viability, T/C: 53.8%
[56]
  viability, T/C: 54.9%
[57]
  viability, T/C: 50.4%
[58]
  viability, T/C: 49.6%
[59]
  viability, T/C: 49.3%
[60]
  viability, T/C: 54.4%
